Source: paper PMC2248166, “Quantitative peptide binding motifs for 19 human and mouse MHC class I molecules derived using positional scanning combinatorial peptide libraries” (Immunome Research, 2008)

How the values were obtained:
Format in all cases: binding
H-2 K^d = H-2 K^d (Mus musculus, UniProt P01902)
HLA B*0801 = HLA B*0801 (Homo sapiens, UniProt P01889, A93T/A95T/D138N/E176V/E187T/K202T/Q94N/R180D/S35A/V36M/Y33D/Y91F); test: biochemical
HLA B*5101 = HLA B*5101 (Homo sapiens, UniProt P01889, A329T/A93T/A95T/C349S/D138N/D201E/D98Y/E187L/E204Q/E69T/G107R/I218V/K202T/L105A/L119W/N104I/Q94N/R106L/R155S/R180L/S101N/S121T/S35A/S48A/V306I/V36M/Y195H/Y91F)
HLA A*3001 = HLA A*3001 (Homo sapiens, UniProt P04439, D140H/D185E/E176W/F33S/G80R/H175R/K168Q/R138E/R41S); test: biochemical
HLA B*3501 = HLA B*3501 (Homo sapiens, UniProt P01889, A329T/A93T/A95T/C349S/D201E/D98Y/E176V/E187L/E204Q/E69T/I218V/K202T/L119I/Q94N/R155S/R180L/S121R/S35A/S48A/T118I/V127L/V306I/V36M/Y140S/Y91F)
HLA B*5801 = HLA B*5801 (Homo sapiens, UniProt P01889, A329T/C349S/D201E/D98Y/E176V/E187L/E204Q/E69T/G107R/I218V/I90N/K202T/L105A/L119I/N104I/N87E/Q89R/Q94S/R106L/R155S/R180L/R86G/S101N/S121R/S35A/S48A/T118I/V127L/V306I/V36M/Y140S/Y91M)
HLA B*5802 = HLA B*5802 (Homo sapiens, UniProt P01889, A329T/C349S/D201E/D98Y/E176V/E187L/E204Q/E69T/G107R/I218V/I90N/K202T/L105A/N104I/N87E/Q89R/Q94S/R106L/R155S/R180L/R86G/S101N/S121W/S35A/S48A/V127L/V306I/V36M/Y140S/Y91M)
H-2 D^b = H-2 D^b (Mus musculus, UniProt P01899)
Chain of H-2 D^b (P01887 21-119): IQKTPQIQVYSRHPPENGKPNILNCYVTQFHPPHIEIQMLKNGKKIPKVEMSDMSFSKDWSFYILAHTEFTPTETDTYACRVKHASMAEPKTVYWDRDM
Chain of H-2 D^b (P01899 25-362): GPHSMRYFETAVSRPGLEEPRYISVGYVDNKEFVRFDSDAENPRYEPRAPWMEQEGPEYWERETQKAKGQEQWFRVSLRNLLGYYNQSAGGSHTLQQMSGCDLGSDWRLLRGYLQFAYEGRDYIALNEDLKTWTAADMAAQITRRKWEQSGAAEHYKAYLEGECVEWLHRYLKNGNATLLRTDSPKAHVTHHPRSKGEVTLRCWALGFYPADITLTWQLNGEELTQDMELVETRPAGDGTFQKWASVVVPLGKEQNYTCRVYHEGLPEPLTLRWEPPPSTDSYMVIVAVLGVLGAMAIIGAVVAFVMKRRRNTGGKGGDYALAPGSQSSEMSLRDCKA

HLA A*3201 = HLA A*3201 (Homo sapiens, UniProt P04439, A270S/D101S/D185E/E176V/E277Q/F133L/G103R/G107R/G231S/H175R/I121M/I218V/I322F/K168Q/L105A/L300P/L318F/M331R/P208A/P217A/Q94H/R106L/R138Q/S129P/T104I/T323A/T345S/V100E/V321M/V358M); test: biochemical
HLA B*5301 = HLA B*5301 (Homo sapiens, UniProt P01889, A329T/A93T/A95T/C349S/D201E/D98Y/E176V/E187L/E204Q/E69T/G107R/I218V/K202T/L105A/L119I/N104I/Q94N/R106L/R155S/R180L/S101N/S121R/S35A/S48A/T118I/V127L/V306I/V36M/Y140S/Y91F)
HLA B*1503 = HLA B*1503 (Homo sapiens, UniProt P01889, A329T/A93T/A95T/C349S/D201E/D98Y/E187L/E204Q/K202T/N87E/Q94N/R155S/R180L/S121R/S35A/V306I/V36M/Y140S/Y91S); test: biochemical
HLA B*1501 = HLA B*1501 (Homo sapiens, UniProt P01889, A329T/A93T/A95T/C349S/D201E/D98Y/E187L/E204Q/E69M/E70A/K202T/N87E/Q94N/R155S/R180W/S121R/S35A/S48A/V306I/V36M/Y140S/Y91S); test: biochemical
HLA A*6802 = HLA A*6802 (Homo sapiens, UniProt P04439, A269V/D140Y/D185E/E176V/E277Q/E87N/F33Y/G231S/I121R/I166T/I218V/L180W/L300P/L318F/N151K/P208A/P217A/Q86R/R138H/R169H/S129P/T345S/V36M)
H-2 D^d = H-2 D^d (Mus musculus, UniProt P01900)
Chain of H-2 D^d (P01900 whole entry, looked up): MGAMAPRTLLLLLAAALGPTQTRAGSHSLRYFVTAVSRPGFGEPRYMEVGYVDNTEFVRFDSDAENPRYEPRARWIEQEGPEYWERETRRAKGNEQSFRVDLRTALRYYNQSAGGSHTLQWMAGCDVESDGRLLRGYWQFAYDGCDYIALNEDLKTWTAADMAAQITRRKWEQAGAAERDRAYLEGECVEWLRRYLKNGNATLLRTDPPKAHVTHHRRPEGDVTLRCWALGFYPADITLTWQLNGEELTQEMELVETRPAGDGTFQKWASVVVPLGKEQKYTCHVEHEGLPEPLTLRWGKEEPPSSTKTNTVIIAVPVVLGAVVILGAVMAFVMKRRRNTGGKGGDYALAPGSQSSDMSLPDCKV

HLA B*5401 = HLA B*5401 (Homo sapiens, UniProt P01889, A329T/C349S/D138N/D201E/E176V/E187T/E204Q/E69G/I76V/K202T/L119W/R155S/R180L/S121T/S35A/S48A/V127L/V306I/V36M/Y140L)
H-2 K^k = H-2 K^k (Mus musculus, UniProt P04223)
Chain of H-2 K^k (P01887 21-119): as the sequence (P01887 21-119) above
Chain of H-2 K^k (P04223 22-369): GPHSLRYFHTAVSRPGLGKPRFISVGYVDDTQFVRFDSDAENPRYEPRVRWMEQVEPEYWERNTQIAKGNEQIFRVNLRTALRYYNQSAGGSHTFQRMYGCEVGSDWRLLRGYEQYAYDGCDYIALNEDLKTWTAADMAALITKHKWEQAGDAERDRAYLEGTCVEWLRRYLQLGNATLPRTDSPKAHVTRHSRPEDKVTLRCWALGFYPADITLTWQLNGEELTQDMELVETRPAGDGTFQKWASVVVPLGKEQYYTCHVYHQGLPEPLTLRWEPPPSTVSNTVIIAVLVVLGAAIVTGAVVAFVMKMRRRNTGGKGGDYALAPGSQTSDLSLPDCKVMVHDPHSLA

Chain of H-2 K^d (P01887 21-119): as the sequence (P01887 21-119) above
Chain of H-2 K^d (P01902 22-368): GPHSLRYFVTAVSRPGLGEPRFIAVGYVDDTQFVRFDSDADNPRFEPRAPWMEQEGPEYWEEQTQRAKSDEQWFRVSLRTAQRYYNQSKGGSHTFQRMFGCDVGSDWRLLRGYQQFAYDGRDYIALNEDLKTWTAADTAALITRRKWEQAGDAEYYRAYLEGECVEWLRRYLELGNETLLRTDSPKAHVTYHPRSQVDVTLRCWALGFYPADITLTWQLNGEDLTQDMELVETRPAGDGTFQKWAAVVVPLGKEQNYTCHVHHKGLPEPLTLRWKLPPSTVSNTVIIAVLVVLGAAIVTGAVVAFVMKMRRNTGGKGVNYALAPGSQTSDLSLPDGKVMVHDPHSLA

Row | Sequence | Normalized average relative binding affinity(ARB) (H-2 K^d) | Normalized average relative binding affinity(ARB) (HLA B*0801) | Normalized average relative binding affinity(ARB) (HLA B*5101) | Normalized average relative binding affinity(ARB) (HLA A*3001) | Normalized average relative binding affinity(ARB) (HLA B*3501) | Normalized average relative binding affinity(ARB) (HLA B*5801) | Normalized average relative binding affinity(ARB) (HLA B*5802) | Normalized average relative binding affinity(ARB) (H-2 D^b) | Normalized average relative binding affinity(ARB) (HLA A*3201) | Normalized average relative binding affinity(ARB) (HLA B*5301) | Normalized average relative binding affinity(ARB) (HLA B*1503) | Normalized average relative binding affinity(ARB) (HLA B*1501) | Normalized average relative binding affinity(ARB) (HLA A*6802) | Normalized average relative binding affinity(ARB) (H-2 D^d) | Normalized average relative binding affinity(ARB) (HLA B*5401) | Normalized average relative binding affinity(ARB) (H-2 K^k)
1 | XXXKXXXXX [3064.0069] | 0.23 | 0.52 | 0.90 | 0.32 | 0.097 | 0.44 | 0.55 | 0.43 | 0.39 | 0.12 | 0.30 | 0.43 | 0.095 | 0.39 | 0.42 | 0.26
2 | XXXLXXXXX [3064.0070] | 0.17 | 0.61 | 0.69 | 0.52 | 0.10 | 0.42 | 0.50 | 0.96 | 0.098 | 0.17 | 0.46 | 0.56 | 0.14 | 0.52 | 0.74 | 0.96
3 | XXXMXXXXX [3064.0071] | 0.22 | 1.0 | 0.46 | 0.38 | 0.27 | 0.54 | 0.44 | 0.65 | 0.58 | 0.46 | 1.0 | 0.56 | 0.55 | 0.49 | 0.13 | 0.42
4 | XXXNXXXXX [3064.0072] | 0.24 | 0.48 | 0.42 | 0.31 | 0.079 | 0.46 | 0.55 | 0.18 | 0.59 | 0.27 | 0.76 | 0.46 | 0.27 | 0.40 | 0.20 | 0.22
5 | XXXPXXXXX [3064.0073] | 0.48 | 0.34 | 0.55 | 0.59 | 0.11 | 1.0 | 0.50 | 0.15 | 0.095 | 0.023 | 0.67 | 0.22 | 0.37 | 0.15 | 0.13 | 0.41
6 | XXXQXXXXX [3064.0074] | 0.42 | 0.90 | 0.57 | 0.65 | 0.088 | 0.46 | 0.31 | 0.61 | 0.32 | 0.26 | 0.83 | 0.96 | 0.18 | 0.49 | 0.093 | 0.63
7 | XXXRXXXXX [3064.0075] | 0.20 | 0.86 | 0.40 | 0.52 | 0.059 | 0.67 | 0.96 | 0.63 | 0.22 | 0.11 | 0.50 | 0.28 | 0.057 | 0.62 | 0.069 | 0.34
8 | XXXSXXXXX [3064.0076] | 0.28 | 0.48 | 0.92 | 0.76 | 0.090 | 0.74 | 1.0 | 0.83 | 0.26 | 0.44 | 0.78 | 1.0 | 1.0 | 0.58 | 0.14 | 0.28
